Reference: paper PMC10982999, “Structure-Guided Design and Optimization of Covalent VHL-Targeted Sulfonyl Fluoride PROTACs” (Journal of Medicinal Chemistry, 2024)

Columns and labels:
physchem = conditions: buffer
Procedure: Table S1. Sulfonyl fluoride warhead stability for VHL-SF1 and VHL-SF2 was determined in
(1 picture or pasted object on this page, not shown here)

BRD4-HiBiT HEK293T cells = conditions: 18 h, 70-0.01 μM
[1] = molecular target: T1, AR (AR-HiBiT LNCaP cells) (Homo sapiens, UniProt P10275, T878A); assay: AR HiBiT degradation assay; format: cell-based; conditions: read-out: AR DC50
T1 construct: host or cells: AR-HiBiT KI LNCaP
T1 sequence (P10275 1-920 T878A): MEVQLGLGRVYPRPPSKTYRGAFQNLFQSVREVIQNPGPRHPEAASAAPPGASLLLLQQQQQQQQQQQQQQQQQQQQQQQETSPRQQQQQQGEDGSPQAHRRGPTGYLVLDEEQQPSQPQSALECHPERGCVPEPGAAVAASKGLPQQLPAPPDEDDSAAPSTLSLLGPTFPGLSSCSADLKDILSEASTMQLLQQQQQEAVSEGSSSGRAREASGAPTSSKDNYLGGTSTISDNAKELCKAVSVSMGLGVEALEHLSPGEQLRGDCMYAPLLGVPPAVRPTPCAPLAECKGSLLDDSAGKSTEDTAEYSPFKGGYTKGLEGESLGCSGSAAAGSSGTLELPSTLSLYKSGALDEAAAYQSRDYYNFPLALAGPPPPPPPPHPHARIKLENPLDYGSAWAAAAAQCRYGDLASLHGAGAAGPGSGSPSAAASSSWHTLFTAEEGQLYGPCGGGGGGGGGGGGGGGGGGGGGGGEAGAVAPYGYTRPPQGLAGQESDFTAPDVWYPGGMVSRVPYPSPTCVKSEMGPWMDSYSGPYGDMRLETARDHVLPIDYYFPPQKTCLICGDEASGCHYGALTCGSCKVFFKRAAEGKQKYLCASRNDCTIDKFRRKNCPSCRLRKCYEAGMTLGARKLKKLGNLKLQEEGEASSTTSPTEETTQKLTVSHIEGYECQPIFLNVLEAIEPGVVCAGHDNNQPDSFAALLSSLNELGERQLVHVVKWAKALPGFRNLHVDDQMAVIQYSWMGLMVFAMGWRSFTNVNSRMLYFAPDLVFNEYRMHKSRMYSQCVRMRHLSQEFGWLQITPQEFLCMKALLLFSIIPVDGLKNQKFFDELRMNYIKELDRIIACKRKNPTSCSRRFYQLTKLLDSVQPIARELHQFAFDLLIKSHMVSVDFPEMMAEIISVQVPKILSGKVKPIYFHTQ
Procedure: (§1) Cellular BRD4/AR HiBiT assay
The HiBiT tagged cells were seeded at 10,000 cells per well in a 384-well plate (Thermo Scientific, 164610) at 25 µL per well in DMEM media containing 10% FBS and incubated overnight. Compounds were dispensed using D300e Digital Dispenser (HP) and normalized to 0.1% DMSO. Cells were pre-treated with Epoxomicin or MLN4924 for 3 h before treatment […]
Nano -Glo HiBiT lytic detection assay was performed as described in the manufacturer protocol (Promega). 25 µL of premixed detection reagent was added to each well of the 384 well assay plate and incubated for 15 min on an orbital shaker (at 600 RPM), and luminescence was read using a PHERAstar FS plate reader (BMG Labtech). Corresponding background RLU values were subtracted from DMSO control values and the percentage of protein (%) of were then calculated against […]
(§2) DMSO-treated controls. […]
1:1000 WB), Tubulin (Sigma #4967S 1:5000 WB).

[2] = molecular target: T2, BRD4 (HEK293 HiBiT-BRD4 Cln3 cells) (Homo sapiens, UniProt O60885); assay: BRD4 HiBiT degradation assay; format: cell-based
T2 construct: GSK; host or cells: HEK293 HiBiT-BRD4 Cln3
Procedure: Figure 3 (A) Structure of BRD-SF2. […] BRD4 and loading control GAPDH levels were visualized by Western blotting. […] (D) HEK293 HiBiT-BRD4 Cln3 cells were treated with epoxomicin (1 μM) for 3 h, followed by the respective PROTAC or VHL-SF2 dose-dependently (75–0.01 μM) for 18 h. […] (E) HEK293 HiBiT-BRD4 Cln3 cells were treated with MLN4924 (1 μM) for 3 h, followed by the respective PROTAC or VHL-SF2 dose-dependently (75–0.01 μM) for 18 h. […] (F) Structure of AR-VHL-SF2 and AR2-VHL-SF2. […] The data the show mean ± SEM (n = 3).
as §1
The HiBiT tagged cells were seeded at 10,000 cells per well in a 384-well plate (Thermo Scientific, 164610) at 25 µL per well in DMEM media containing 10% FBS and incubated overnight. Compounds were dispensed using D300e Digital Dispenser (HP) and normalized to 0.1% DMSO. Cells were pre-treated with Epoxomicin or MLN4924 for 3 h before treatment or directly with the PROTAC degraders for 18 or 24 h. Nano -Glo HiBiT lytic detection assay was performed as described in the manufacturer protocol (Promega). 25 µL of premixed detection reagent was added to each well of the 384 well assay plate and incubated for 15 min on an orbital shaker (at 600 RPM), and luminescence was read using a PHERAstar FS plate reader (BMG Labtech). Corresponding background RLU values were subtracted from DMSO control values and the percentage of protein (%) of were then calculated against […]
as §2

Which half-life (physchem; pH 4) does the source give for `Cc1cc([C@H](C(=O)N2C[C@H](S(=O)(=O)F)C[C@H]2C(=O)N[C@@H](CC(=O)OC(C)(C)C)c2ccc(-c3scnc3C)cc2)C(C)C)on1` [VHL-SF2, tert-Butyl (S)-3-((2S,4R)-4-(Fluorosulfonyl)-1-((R)-3-methyl-2-(3-methylisoxazol-5-yl)butanoyl)pyrr-olidine-2-carboxamido)-3-(4-(4-methylthiazol-5-yl)phenyl)propanoate] here?
Its half-life is 2280 min.

What about the half-life (physchem; pH 5) of the same compound?
The half-life was 840 min.

And the half-life (physchem; pH 6)?
Its half-life is 900 min.

What about the half-life (physchem; pH 7.5) of the same compound?
The half-life was 24 min.

What about the “cytotoxicity (CellTiter-Glo)” value (BRD4-HiBiT HEK293T cells) of the same compound?
The value was “no evidence of cytotoxicity”.

What about the DC50 [1] of the same compound?
The DC50 was over 75 µM.

And the “effect on BRD4 levels” value ([2]; 18 h, 75 μM-1 pM)?
Its value is “did not affect BRD4 levels”.

And the DC50 ([2]; read-out: BRD4 DC50)?
Its DC50 is over 75 µM.
